Measured values: article PMC10496295, “In vitro cytotoxic effect of stigmasterol derivatives against breast cancer cells” (BMC Complementary Medicine and Therapies, 2023)
Read-outs that look alike come from different tables or passages of the source.

Legend:
[1] = test system: MCF-7 hormone receptor-positive breast cancer cell line; assay: resazurin cytotoxicity assay, MCF-7 cells; assay type: cell-based; details: for SI (selectivity index), MCF-7: EC50 against MCF12A cells ÷ EC50 against MCF-7 cells; for EC50: Homo sapiens
[2] = test system: MCF-12 A non-tumorigenic breast epithelial cell line; assay: resazurin cytotoxicity assay, MCF-12 A cells; assay type: cell-based; details: Homo sapiens
[3] = test system: HCC70 triple negative breast cancer cell line; assay: resazurin cytotoxicity assay, HCC70 cells; assay type: cell-based; details: for SI (selectivity index), HCC70: EC50 against MCF12A cells ÷ EC50 against HCC70 cells; for EC50: Homo sapiens
[4] = test system: human ovarian cancer cells ES2; set-up: method as in PMID 32481565; details: treatment concentration 20 µg/mL; cited from earlier work
[5] = test system: human ovarian cancer cells OV90; set-up: method as in PMID 32481565; details: treatment concentration 20 µg/mL; cited from earlier work
[6] = test system: human gastric cancer cell line SNU-1; details: read-out: IC50, SNU-1 proliferation; cited from earlier work
[7] = test system: human breast cancer MCF-7 cell line; set-up: method as in PMID 33839518; details: read-out: IC50 against MCF-7 cell line; cited from earlier work
[8] = test system: oxidative burst of the whole blood; set-up: method as in PMID 23136063; details: cited from earlier work
[9] = test system: U937 human monocytic cell line; set-up: method as in PMID 20828195; details: cited from earlier work; for reduction in cell viability / level of cell death compared to the untreated control: p < 0.05; for level of cell death compared to the untreated control: FDA/EtBr staining
[10] = MCF7, 96 h, read-out: EC50 and Standard deviation, MCF-7, MCF-7 cells, 96 h treatment, resazurin assay
[11] = MCF-12A, 96 h, read-out: EC50 and Standard deviation, MCF-12 A, MCF-12 A cells, 96 h treatment, resazurin assay
[12] = HCC70, 96 h, read-out: EC50 and Standard deviation, HCC70, HCC70 cells, 96 h treatment, resazurin assay
[13] = MCF7, MCF-7 cells, 96 h treatment, resazurin assay, read-out: EC50 and Standard deviation, MCF-7
[14] = MCF-12 A cells, 96 h treatment, resazurin assay, read-out: EC50 and Standard deviation, MCF-12 A
[15] = HCC70 cells, 96 h treatment, resazurin assay, read-out: EC50 and Standard deviation, HCC70

Structure (SMILES)	SI (selectivity index), MCF-7 [1]	SI (selectivity index), HCC70 [3]	melting point [°C]	EC50 [1, 13] [nM]	EC50 [2, 14] [nM]	EC50 [3, 15] [nM]	other results
CC[C@@]1(O)C(=O)OCc2c1cc1n(c2=O)Cc2cc3ccccc3nc2-1 [Camptothecin, reference compound]	1.00	1.25	–	–	–	–	EC50 ([1]; MCF7, MCF-7 cells, 96 h, resazurin assay, positive control, row unit nM, read-out: EC50 and Standard deviation, MCF-7): 104 ± 9.92 nM; EC50 ([2]; MCF-12 A cells, 96 h, resazurin assay, positive control, row unit nM, read-out: EC50 and Standard deviation, MCF-12 A): 104.2 ± 1.03 nM; EC50 ([3]; HCC70 cells, 96 h, resazurin assay, positive control, row unit nM, read-out: EC50 and Standard deviation, HCC70): 83.2 ± 1.08 nM
CC[C@H](C=C[C@@H](C)[C@H]1CC[C@H]2[C@@H]3CC=C4C[C@@H](O)CC[C@]4(C)[C@H]3CC[C@]12C)C(C)C [Compound 1, stigmasta-5,22-dien-3β-ol]	–	–	–	–	–	–	reduction of growth of ES2 cells [4]: 50%; EC50 [1, 10]: > 250000 nM; reduction of growth of OV90 cells [5]: 50%; IC50 [6]: 15 µM; IC50 [7]: 0.162 µM; EC50 [2, 11]: > 250000 nM; EC50 [3, 12]: > 250000 nM
CC[C@H](/C=C/[C@@H](C)C1CCC2C3CC=C4C[C@@H](OC(C)=O)CC[C@]4(C)C3CC[C@@]21C)C(C)C (stereo partly drawn) [Compound 2, Stigmasterol acetate]	–	–	139 to 141	–	–	–	EC50 [1, 10]: > 250000 nM; EC50 [2, 11]: > 250000 nM; EC50 [3, 12]: > 250000 nM
CC[C@H](C=C[C@@H](C)[C@H]1CC[C@H]2[C@@H]3C(=O)C=C4CC(=O)CC[C@]4(C)[C@H]3CC[C@]12C)C(C)C [Compound 3, Stigmasta-5,22-dien-3,7-dione]	0.70	0.45	152 to 155	42800 ± 1320	30200 ± 1240	67700 ± 1260	IC50 [8]: 15.6 ± 2.1 µM
CC[C@H](C=C[C@@H](C)[C@H]1CC[C@H]2[C@@H]3CC4OC45C[C@@H](O)CC[C@]5(C)[C@H]3CC[C@]12C)C(C)C (stereo partly drawn) [Compound 4, 5,6-Epoxystigmast-22-en-3β-ol]	–	0.28	142 to 145	21900 ± 1320	47000 ± 1180	165700 ± 1300	–
CC[C@@H](C(C)C)C(O)C(O)[C@@H](C)C1CCC2C3CC4OC45C[C@@H](O)CC[C@]5(C)C3CC[C@@]21C (stereo partly drawn) [Compound 5, 5,6-Epoxystigmasta-3β,22,23-triol]	0.69	0.90	–	44000 ± 1400	30200 ± 1280	33700 ± 1330	reduction in cell viability ([9]; U937 cells, 60 and 120 µM): significantly reduced cell viability; level of cell death compared to the untreated control ([9]; U937 cells): significant; mode of cell death ([9]; U937 cells, staining with Hoechst 33,342): apoptosis
CC[C@@H](C(C)C)C(O)C(O)[C@@H](C)[C@H]1CC[C@H]2[C@@H]3CC(O)C4(O)C[C@@H](O)CC[C@]4(C)[C@H]3CC[C@]12C (stereo partly drawn) [Compound 6, Stigmastane-3β,5,6,22,23-pentol]	0.51	–	201 to 204	44100 ± 1400	22600 ± 1220	16800 ± 1170	–
CC[C@@H](C(C)C)C(O)C(O)[C@@H](C)[C@H]1CC[C@H]2[C@@H]3C(=O)C=C4CC(=O)CC[C@]4(C)[C@H]3CC[C@]12C (stereo partly drawn) [Compound 7, Stigmasta-5-en-3,7-dion-22,23-diol]	1.36	0.19	137 to 140	23200 ± 1080	31600 ± 1120	170100 ± 1180	–
CC[C@@H](C(C)C)C(O)C(O)[C@@H](C)C1CCC2C3C(=O)C(O)C4(O)CC(=O)CC[C@]4(C)C3CC[C@@]21C (stereo partly drawn) [Compound 8, Stigmasta-3,7-dion-5,6,22,23-ol]	–	–	183 to 187	> 250000	> 250000	53200 ± 1060	–
CC[C@@H](C(C)C)C(O)C(O)[C@@H](C)[C@H]1CC[C@H]2[C@@H]3CC=C4C[C@@H](O)CC[C@]4(C)[C@H]3CC[C@]12C (stereo partly drawn) [Compound 9, Stigmast-5-ene-3β,22,23-triol]	–	1.16	–	22900 ± 1090	51800 ± 1130	44500 ± 1130	reduction in cell viability ([9]; U937 cells, 30, 60 and 120 µM): significant reduction; level of cell death compared to the untreated control ([9]; U937 cells): significant; cell viability ([9]; U937 cells, highest concentration 120 µM): 52.3%
N.N.[Cl][Pt][Cl] [cisplatin, reference compound]	–	–	–	–	–	–	IC50 [7]: 13.2 µM
CC(C)Cc1ccc(C(C)C(=O)O)cc1 (stereo not drawn) [ibuprofen, reference compound]	–	–	–	–	–	–	IC50 [8]: 12.1 µM
